Peptide text beside a SMILES is read from it.

The values below come from US20050026873A1, “Type-I methionyl aminopeptidases inhibitors in antibacterial targeting” (priority 2003, published 2005).

Data set [1] addresses T1, C70A EcMetAP (Escherichia coli, UniProt P0AE18, C70A).
T1 construct: made in house
As to the kind of experiment: Kinetic constants towards MGMM, C70A mutant. The settings on record: 30° C., pH 7.5. The format is biochemical, E. coli. The protocol: (§1) Since at least one surface accessible cysteine residue, in addition to Cys59 and Cys70, exists in EcMetAP-I, reaction of DTNB with other residues cannot be ruled out. In order to circumvent this problem, both the C59A and C70A EcMetAP-I mutant enzymes were prepared and purified using the QuikChange Site-directed Mutagenesis Kit (Stratagene) and each mutation was verified by nucleotide sequencing. Both mutant enzymes bind one equivalent of Co(II) or Fe(II) tightly, based on ICP-AES analysis, which is identical to wild-type EcMetAP, and their kinetic parameters are listed below. […] Moreover, the Km values for both Co(II)— and Fe(II)-loaded EcMetAP C59A and C70A double and quadruple, respectively.

In data set [2] the target is T2, C59A EcMetAP (Escherichia coli, UniProt P0AE18, C59A).
T2 construct: made in house
As to the kind of experiment: Kinetic constants towards MGMM, C59A mutant. The following applies: 30° C., pH 7.5. The format is biochemical, E. coli. The protocol: as §1

Data set [3] addresses T3, PjMetAP-II (Pyrococcus furiosus, UniProt P56218). Nature of the data set: DTNB inactivation of type-II MetAP, identical experiments. The format is biochemical. The following applies: even after several hours.
In data set [4] the target is T2, C59A EcMetAP. Nature of the data set: DTNB inactivation of C59A mutant enzyme. The class given is biochemical, E. coli. The settings on record: 10 μM DTNB. On the procedure: as §1
The target in data set [5] is T4, EcMetAP-I (Escherichia coli, UniProt P0AE18).
T4 sequence (P0AE18 1-264): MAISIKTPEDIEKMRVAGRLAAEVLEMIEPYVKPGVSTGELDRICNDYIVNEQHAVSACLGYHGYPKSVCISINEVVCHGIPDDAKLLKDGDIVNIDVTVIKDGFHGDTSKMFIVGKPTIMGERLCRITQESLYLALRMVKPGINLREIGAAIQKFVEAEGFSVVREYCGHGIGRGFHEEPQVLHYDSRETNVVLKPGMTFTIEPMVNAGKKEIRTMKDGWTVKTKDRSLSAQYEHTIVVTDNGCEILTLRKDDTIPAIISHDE
As to the kind of experiment: DTNB inactivation of EcMetAP-I, hydrolysis of MP-p-NA. The format is biochemical, E. coli. The settings on record: 200 μM DTNB, Co(II)-loaded EcMetAP-I, strict anaerobic conditions, pH 7.5, MP-p-NA hydrolysis. On the procedure: In order to determine if Cys59 and Cys70 are involved in substrate recognition and binding, it was examined if the cysteine-specific chemical modification reagent, 5,5′-dithio-bis(2-nitrobenzoic acid) (DTNB) inhibits the hydrolysis of methionylprolyl-p-nitroanilide (MP-p-NA) by EcMetAP. A 200 μM solution of DTNB was prepared in 50 mM HEPES buffer, pH 7.5, […] and added to a […] sample of Co(II)-loaded EcMetAP-I under strict anaerobic conditions.

Data set [6] addresses T1, C70A EcMetAP. As to the kind of experiment: DTNB inactivation of C70A mutant enzyme. The settings on record: compared with wild-type. The class given is biochemical, E. coli. On the procedure:
as §1

The next data set concerns the target HsMetAP type-II enzyme (Homo sapiens, UniProt P50579). Nature of the data set: DTNB effect on catalytic activity of HsMetAP type-II. The format is biochemical. The following applies: 200 μM DTNB.
In data set [7] the target is T3, PjMetAP-II. As to the kind of experiment: Reaction of type-II MetAP with Inhibitor 1 and Inhibitor 2, catalytic activity. The format is biochemical. The settings on record: reaction for up to 12 hours. On the procedure:
(§2) Since only C59 appears to be accessible for covalent modification, two potential inhibitors (Inhibitor 1 and Inhibitor 2, as depicted in FIG. 10) were prepared based on molecular modeling, one of which contains a good leaving group (I^−) and should be susceptible to nucleophilic attack while the second will not undergo nucleophilic addition.

Another data set has as its target T5, wild-type EcMetAP-I (Escherichia coli, UniProt P0AE18).
T5 sequence (P0AE18 1-264): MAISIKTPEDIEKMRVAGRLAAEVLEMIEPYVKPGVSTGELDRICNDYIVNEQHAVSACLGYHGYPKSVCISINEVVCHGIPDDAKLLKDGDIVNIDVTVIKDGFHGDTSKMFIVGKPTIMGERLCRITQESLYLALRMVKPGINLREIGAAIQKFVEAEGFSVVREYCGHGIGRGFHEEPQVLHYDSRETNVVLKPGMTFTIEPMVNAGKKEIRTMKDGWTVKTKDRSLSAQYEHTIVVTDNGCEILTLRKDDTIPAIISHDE
As to the kind of experiment: Reaction of wild-type EcMetAP-I with Inhibitor 1 and Inhibitor 2, catalytic activity. The class given is biochemical, E. coli. The settings on record: reaction for up to 12 hours. The protocol: as §2

The target of data set [8] is T4, EcMetAP-I. As to the kind of experiment: MALDI-TOF analysis of EcMetAP-I with and without Inhibitor 1. The class given is binding, E. coli. The protocol: Matrix-Assisted Laser Desorption Ionization-Time of Flight (MALDI-TOF) spectrometric analysis was performed on EcMetAP-I in both the presence and absence of Inhibitor 1.
Substrate in data set [9]: CSCC[C@H](NC(=O)[C@H](CCSC)NC(=O)CNC(=O)[C@@H](N)CCSC)C(=O)O
As to the kind of experiment: Kinetic constants towards MGMM, wild-type enzyme. The settings on record: 30° C., pH 7.5. The class given is biochemical, E. coli. On the procedure: as §1

The term Km denotes the substrate concentration at which the rate is half of its maximum. For the molecule `CSCC[C@H](NC(=O)[C@H](CCSC)NC(=O)CNC(=O)[C@@H](N)CCSC)C(=O)O` [MGMM] (H-MGMM-OH), the Km at C70A EcMetAP [1] (Co(II)-loaded) was determined as 10 ± 0.2 mM; at C70A EcMetAP [1] (Fe(II)-loaded) it was 11 ± 0.2 mM; at C59A EcMetAP [2] (Co(II)-loaded) it was 6.4 ± 0.2 mM; at C59A EcMetAP [2] (Fe(II)-loaded), 8 ± 0.2 mM.
For the molecule `O=C(O)c1cc(SSc2ccc([N+](=O)[O-])c(C(=O)O)c2)ccc1[N+](=O)[O-]` [DTNB, 5,5′-dithio-bis(2-nitrobenzoic acid)], on PjMetAP-II [3], the “inactivation due to DTNB” value is on record as “no inactivation”. Moreover, on C59A EcMetAP [4] (compared with wild-type), the inactivation rate result was “slower rate”. Moreover, the “inactivation of the catalytic activity” value at C59A EcMetAP [4] (strict anaerobic conditions) is “complete inactivation”. Further, the “time until EcMetAP was completely inactive after addition of DTNB” value at EcMetAP-I [5] came to 50 min. Besides, the observed inactivation rate result at C70A EcMetAP [6] was “identical to wild-type enzyme”. Besides, the “loss in catalytic activity” value at HsMetAP type-II enzyme is “no loss in catalytic activity”.
For `O=C(O)CCCCCP(=O)(O)O` [Inhibitor 2, 6-phosphonhexanoic acid], the “inhibition of type-II MetAP” value against PjMetAP-II [7] is given as “not significantly inhibited”. Further, the “effect on catalytic activity of EcMetAP-I” value on wild-type EcMetAP-I is “did not significantly alter”.
`O=P(O)(O)CCCCI` [Inhibitor 1, 4-iodobutylphosphonic acid]: the “shift in mass peak of EcMetAP-I upon reaction (addition)” value on EcMetAP-I [8] (MALDI-TOF, enzyme alone 29,500±10) is 140 mass units. For the same molecule, the “mode of binding to EcMetAP-I” value at EcMetAP-I [8] (via C59, concluded from MALDI-TOF) is given as “covalently bound”. Moreover, at PjMetAP-II [7], the “inhibition of type-II MetAP” value is “not significantly inhibited”. In addition, the “effect on catalytic activity of EcMetAP-I” value at wild-type EcMetAP-I was “complete and irreversible loss in catalytic activity”.

B1: wild-type EcMetAP (Escherichia coli K-12) (protein)
chain: MAISIKTPEDIEKMRVAGRLAAEVLEMIEPYVKPGVSTGELDRICNDYIVNEQHAVSACLGYHGYPKSVCISINEVVCHGIPDDAKLLKDGDIVNIDVTVIKDGFHGDTSKMFIVGKPTIMGERLCRITQESLYLALRMVKPGINLREIGAAIQKFVEAEGFSVVREYCGHGIGRGFHEEPQVLHYDSRETNVVLKPGMTFTIEPMVNAGKKEIRTMKDGWTVKTKDRSLSAQYEHTIVVTDNGCEILTLRKDDTIPAIISHDE
In general, Vmax refers to the rate approached at saturating substrate. One may read the kcat as the maximal rate divided by the concentration of active sites. By kcat/Km is commonly meant the second-order rate constant that governs catalysis at low substrate concentration. With B1, in [9] (other: Co(II)-loaded), the Km is recorded as 3.2 ± 0.1 mM, the Vmax is 39 µmol/min/mg, the kcat is 19.5 s⁻¹ and the catalytic efficiency (kcat/Km) stood at 6100 M⁻¹ s⁻¹. In data set [9] (other: Fe(II)-loaded), the Michaelis-Menten constant (Km) is recorded as 2.0 ± 0.3 mM, the Vmax is 55 µmol/min/mg, the catalytic constant (kcat) amounted to 28 s⁻¹ and the kcat/Km came out at 14000 M⁻¹ s⁻¹.
